Measurements as given in article PMC8230370, “Antiproliferative Illudalane Sesquiterpenes from the Marine Sediment Ascomycete Aspergillus oryzae” (Marine Drugs, 2021).
“Also recorded” adds a separate entry of the source. Where two headings read alike, the source gives them in different places.

What was measured:
A549 (lung) cancer cells = assay: MTT antiproliferative assay, A549 lung carcinoma; assay type: cell-based, human; details: 48 h incubation, read-out: IC50 for the Different Carcinoma Cell Lines, A549 (Lung)
Protocol: (§1) The antiproliferative activity of compounds was measured using MTT (3-(4, 5-dimethylthiazol-2-yl)-2,5-diphenyltetrazolium bromide) assay. A549 (lung), HepG2 (liver), and MCF-7 (breast) cancer cells were purchased from the American Type Cell Collection (ATCC, Manassas, VA, USA). The cells were seeded at 5 × 10^4 cells/well (in 100 μL of DMEM) in 96-well microplates. After 24 h incubation at 37 °C, serial dilution (15–250 µM) of each compound was added and incubated for 48 h. Thereafter, 10 μL of the MTT solution (5 mg/mL) was added to each well. After 4 h incubation with the MTT solution, a volume of 100 μL of acidified isopropanol was added to solubilize the formazan product and incubated on a shaker for a further 10 min. Reduced MTT was assayed at 570 nm using a microplate reader (BioTek, Winoosky, VT, USA). Control groups received the same amount of DMSO (0.1%), untreated cells were used as a negative control, whereas cells treated with doxorubicin were used as a positive control. The IC50 (concentration that caused more than 50% inhibition of proliferation) was calculated from a dose-dependent curve. The cell viability percent was calculated = mean absorbance of treated sample/mean absorbance of control ×100.

[1] = tested on: HepG2 (liver) cancer cells; assay: MTT antiproliferative assay, HepG2 liver carcinoma; assay type: cell-based, human; details: 48 h incubation, read-out: IC50 for the Different Carcinoma Cell Lines, HepG2 (Liver)
Protocol: as §1

[2] = tested on: MCF-7 (breast) cancer cells; assay: MTT antiproliferative assay, MCF-7 breast carcinoma; assay type: cell-based, human; details: 48 h incubation, MCF-7 cells, read-out: IC50 for the Different Carcinoma Cell Lines, MCF-7 (Breast)
Protocol: as §1

zebrafish embryos = assay: Zebrafish embryo toxicity screening; assay type: in vivo; details: for observable toxicity / development of treated zebrafish embryos: up to 3 days post treatment
Description: Wild-type zebrafish strain AB/Tuebingen TAB-14(AB/TuebingenTAB-14) (Catalog ID: ZL1438) were obtained from zebrafish international resource center and grown in an animal facility at the Department of Zoology, King Saud University, Riyadh, Kingdom of Saudi Arabia. The fish were maintained and bred following guidelines of the Institutional Animal Care and Use Committee (ICUAC) and zebrafish book. The fertilized embryos were obtained by natural pairwise breeding of adult fish. The fertilized embryos were sorted, dead embryos were removed, and synchronous stage embryos were used for screening.
A stock solution of 25 mM was made by dissolving the compounds in molecular biology grade DMSO (Sigma Aldrich, St. Louis, MI, USA). Zebrafish embryos were exposed to serial dilution (1, 5, 15, 45, 150, and 300 µM) of each compound. The embryos were remained exposed to the compounds for 3 days, and the embryos medium containing the compounds were changed every day. The response of the embryos toward mortality, and embryonic toxicity (teratogenicity) was monitored once after 12 h and then after every 24 h until the end of the experiment. The experiment was repeated at least three times (triplicate biological repeats) by using a new batch of embryos every time. LC50 for zebrafish embryonic toxicity was calculated by using an updated Probit analysis by Finney method.

SMILES	IC50 (A549 (lung) cancer cells; Homo sapiens, A549, 48 h)	IC50 ([1]; Homo sapiens, HepG2, 48 h)	IC50 ([2]; Homo sapiens, MCF7, 48 h)	observable toxicity / development of treated zebrafish embryos (zebrafish embryos)	death of treated embryos (zebrafish embryos; after 24 h post treatment, initial development normal)	IC50 (A549 (lung) cancer cells)	IC50 [1]	IC50 [2]	toxicity in zebrafish embryos (zebrafish embryos; more than 200 µM compound, after 2 days post treatment)
Cc1c2c(cc3c1CCOC3=O)C[C@](C)(CO)C2 [Compound 2, echinolactone D]	55.7 ± 2.5 µM	148 ± 5.6 µM	128 ± 2.8 µM	did not exhibit any observable toxicity; also recorded: developed normally					
O=c1cc(CO)c(O)co1 [Compound 3, 4-(hydroxymethyl)-5-hydroxy-2H-pyran-2-one]	208 ± 6.8 µM	220 ± 3.6 µM	225 ± 5.1 µM	did not exhibit any observable toxicity; also recorded: developed normally					
O=Cc1ccc(O)cc1 [Compound 5, 4-hydroxybenzaldehyde]	97.5 ± 2.6 µM	243 ± 6.4 µM	158 ± 5.5 µM	did not exhibit any observable toxicity; also recorded: developed normally					
CC(=O)OCc1cc(=O)occ1O [Compound 4, (5-hydroxy-2-oxo-2H-pyran-4-yl)methyl acetate]	89.4 ± 2.3 µM	127 ± 6.4 µM	171 ± 4.5 µM	found dead on day 2	100%				
COc1cccc2c1C(=O)c1c(O)c3c(c(O)c1C2=O)C[C@@](O)(C(=O)CO)C[C@@H]3O[C@H]1C[C@H](N)[C@H](O)[C@H](C)O1 [Doxorubicin, doxorubicin, reference compound]	2.1 ± 0.08 µM	2.2 ± 0.15 µM	1.9 ± 0.05 µM						
Cc1c2c(cc3c1[C@@H](O)COC3=O)CC(C)(C)C2 [Compound 1, asperorlactone]	< 100 µM	< 100 µM	< 100 µM			72.7 ± 1.1 µM	86.6 ± 3.2 µM	106 ± 4.2 µM	cardiac toxicity (cardiac edema and cardiac hypertrophy
